Assay results as given in patent US8871753B2, “Macrocyclic compounds and their use as kinase inhibitors” (Incyte Corporation, priority 2008, dated 2014).
Counter-ions that a name gives are not always drawn. Like-named read-outs stand apart in the source and are kept apart here.

Assays:
Assay type in all cases: biochemical
[1] = molecular target: T1, human JAK2 (a.a. 828-1132) (Homo sapiens, UniProt O60674); assay: In vitro JAK kinase assay (HTRF, phosphorylation of a biotinylated peptide), JAK2
T1 construct: JAK2 (a.a. 828-1132); His tag (N); made in house; host or cells: insect cells (baculovirus)
Procedure, shortened: (§1)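 Phosphorylation of a biotinylated peptide by the JAK kinase domain, detected by HTRF with Eu-Py20 and SA-APC. ATP was 90 μM for JAK1, 30 μM for JAK2 and 3 μM for JAK3. Reactions ran 1 h at room temperature and were stopped with EDTA, followed by 40 min antibody binding.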

TYK2 = TYK2 (Homo sapiens, UniProt P29597); assay: TYK2 kinase inhibition (Table A1)
[2] = molecular target: T2, human JAK1 (a.a. 837-1142) (Homo sapiens, UniProt P23458); assay: In vitro JAK kinase assay (HTRF, phosphorylation of a biotinylated peptide), JAK1; details: read-out: JAK1 IC50
T2 construct: human JAK1 (a.a. 837-1142); His tag (N); made in house; host or cells: insect cells (baculovirus)
Procedure, shortened: as §1

[3] = molecular target: T3, human JAK3 (a.a. 781-1124) (Homo sapiens, UniProt P52333); assay: In vitro JAK kinase assay (HTRF, phosphorylation of a biotinylated peptide), JAK3
T3 construct: JAK3 (a.a. 781-1124); His tag (N); made in house; host or cells: insect cells (baculovirus)
Procedure, shortened: as §1

[4] = molecular target: T4, Recombinant Human Anaplastic Lymphoma Kinase (Homo sapiens, UniProt Q9UM73); assay: ALK HTRF kinase assay
T4 construct: purchased Invitrogen, Carlsbad, Calif
Procedure, shortened: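 IC50 was obtained from a logistic fit of signal versus log inhibitor concentration, using pre- and post-transition baselines and a Hill slope. The signal reported tyrosine phosphorylation of a biotinylated peptide by recombinant human kinase, detected as Eu-to-APC energy transfer.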

[5] = method AA1 (30 μM ATP) or AA2 (1000 μM ATP), not stated per value
[6] = method AA1 (90 μM ATP) or AA2 (1000 μM ATP), not stated per value
[7] = method AA1 (3 μM ATP) or AA2 (1000 μM ATP), not stated per value
[8] = compound at 500 nM or 1 mM, 90 μM ATP
[9] = compound at a concentration of 500 nM or 1 mM (not specified), cells shown as percentage
[10] = Table B1, cells without percent sign

T1 sequence (O60674 828-1132): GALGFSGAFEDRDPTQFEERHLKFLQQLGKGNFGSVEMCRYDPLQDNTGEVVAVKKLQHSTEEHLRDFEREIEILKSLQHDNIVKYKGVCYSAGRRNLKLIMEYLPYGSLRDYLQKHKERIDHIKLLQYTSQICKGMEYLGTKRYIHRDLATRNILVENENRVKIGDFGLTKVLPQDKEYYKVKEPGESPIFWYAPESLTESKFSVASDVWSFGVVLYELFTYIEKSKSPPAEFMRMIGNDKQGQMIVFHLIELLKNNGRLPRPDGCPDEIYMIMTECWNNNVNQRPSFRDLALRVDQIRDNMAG
Sequence of TYK2 (P29597 whole entry): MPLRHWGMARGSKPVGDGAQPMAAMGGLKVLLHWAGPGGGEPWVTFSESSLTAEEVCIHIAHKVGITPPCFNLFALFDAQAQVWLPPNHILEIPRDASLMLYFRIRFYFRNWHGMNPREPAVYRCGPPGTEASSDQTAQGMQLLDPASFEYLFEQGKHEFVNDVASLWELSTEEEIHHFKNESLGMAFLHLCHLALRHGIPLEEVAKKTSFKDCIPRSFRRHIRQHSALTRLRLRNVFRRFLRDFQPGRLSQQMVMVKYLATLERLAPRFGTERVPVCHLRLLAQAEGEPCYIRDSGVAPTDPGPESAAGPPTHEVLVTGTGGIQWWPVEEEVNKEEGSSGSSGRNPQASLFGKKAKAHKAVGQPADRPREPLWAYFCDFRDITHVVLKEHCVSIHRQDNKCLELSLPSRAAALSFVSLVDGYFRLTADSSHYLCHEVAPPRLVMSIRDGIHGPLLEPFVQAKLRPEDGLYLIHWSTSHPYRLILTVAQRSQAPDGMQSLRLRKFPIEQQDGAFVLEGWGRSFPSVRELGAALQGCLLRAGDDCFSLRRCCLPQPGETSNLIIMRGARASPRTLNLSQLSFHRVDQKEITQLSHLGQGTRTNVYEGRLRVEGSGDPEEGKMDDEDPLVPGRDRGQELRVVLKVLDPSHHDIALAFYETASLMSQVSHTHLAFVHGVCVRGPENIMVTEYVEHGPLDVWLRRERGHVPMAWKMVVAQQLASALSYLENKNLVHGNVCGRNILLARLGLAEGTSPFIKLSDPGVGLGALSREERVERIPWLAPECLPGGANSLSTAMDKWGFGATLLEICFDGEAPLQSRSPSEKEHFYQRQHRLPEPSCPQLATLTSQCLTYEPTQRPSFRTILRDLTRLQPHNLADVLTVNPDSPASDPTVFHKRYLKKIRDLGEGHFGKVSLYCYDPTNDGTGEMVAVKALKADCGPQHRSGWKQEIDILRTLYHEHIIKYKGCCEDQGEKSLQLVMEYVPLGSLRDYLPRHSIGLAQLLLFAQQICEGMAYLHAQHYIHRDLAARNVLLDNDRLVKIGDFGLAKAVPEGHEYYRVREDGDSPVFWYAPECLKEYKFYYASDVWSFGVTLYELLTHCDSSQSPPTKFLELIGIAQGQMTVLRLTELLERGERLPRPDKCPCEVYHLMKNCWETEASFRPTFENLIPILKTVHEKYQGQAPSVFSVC
T4 sequence (Q9UM73 19-1620): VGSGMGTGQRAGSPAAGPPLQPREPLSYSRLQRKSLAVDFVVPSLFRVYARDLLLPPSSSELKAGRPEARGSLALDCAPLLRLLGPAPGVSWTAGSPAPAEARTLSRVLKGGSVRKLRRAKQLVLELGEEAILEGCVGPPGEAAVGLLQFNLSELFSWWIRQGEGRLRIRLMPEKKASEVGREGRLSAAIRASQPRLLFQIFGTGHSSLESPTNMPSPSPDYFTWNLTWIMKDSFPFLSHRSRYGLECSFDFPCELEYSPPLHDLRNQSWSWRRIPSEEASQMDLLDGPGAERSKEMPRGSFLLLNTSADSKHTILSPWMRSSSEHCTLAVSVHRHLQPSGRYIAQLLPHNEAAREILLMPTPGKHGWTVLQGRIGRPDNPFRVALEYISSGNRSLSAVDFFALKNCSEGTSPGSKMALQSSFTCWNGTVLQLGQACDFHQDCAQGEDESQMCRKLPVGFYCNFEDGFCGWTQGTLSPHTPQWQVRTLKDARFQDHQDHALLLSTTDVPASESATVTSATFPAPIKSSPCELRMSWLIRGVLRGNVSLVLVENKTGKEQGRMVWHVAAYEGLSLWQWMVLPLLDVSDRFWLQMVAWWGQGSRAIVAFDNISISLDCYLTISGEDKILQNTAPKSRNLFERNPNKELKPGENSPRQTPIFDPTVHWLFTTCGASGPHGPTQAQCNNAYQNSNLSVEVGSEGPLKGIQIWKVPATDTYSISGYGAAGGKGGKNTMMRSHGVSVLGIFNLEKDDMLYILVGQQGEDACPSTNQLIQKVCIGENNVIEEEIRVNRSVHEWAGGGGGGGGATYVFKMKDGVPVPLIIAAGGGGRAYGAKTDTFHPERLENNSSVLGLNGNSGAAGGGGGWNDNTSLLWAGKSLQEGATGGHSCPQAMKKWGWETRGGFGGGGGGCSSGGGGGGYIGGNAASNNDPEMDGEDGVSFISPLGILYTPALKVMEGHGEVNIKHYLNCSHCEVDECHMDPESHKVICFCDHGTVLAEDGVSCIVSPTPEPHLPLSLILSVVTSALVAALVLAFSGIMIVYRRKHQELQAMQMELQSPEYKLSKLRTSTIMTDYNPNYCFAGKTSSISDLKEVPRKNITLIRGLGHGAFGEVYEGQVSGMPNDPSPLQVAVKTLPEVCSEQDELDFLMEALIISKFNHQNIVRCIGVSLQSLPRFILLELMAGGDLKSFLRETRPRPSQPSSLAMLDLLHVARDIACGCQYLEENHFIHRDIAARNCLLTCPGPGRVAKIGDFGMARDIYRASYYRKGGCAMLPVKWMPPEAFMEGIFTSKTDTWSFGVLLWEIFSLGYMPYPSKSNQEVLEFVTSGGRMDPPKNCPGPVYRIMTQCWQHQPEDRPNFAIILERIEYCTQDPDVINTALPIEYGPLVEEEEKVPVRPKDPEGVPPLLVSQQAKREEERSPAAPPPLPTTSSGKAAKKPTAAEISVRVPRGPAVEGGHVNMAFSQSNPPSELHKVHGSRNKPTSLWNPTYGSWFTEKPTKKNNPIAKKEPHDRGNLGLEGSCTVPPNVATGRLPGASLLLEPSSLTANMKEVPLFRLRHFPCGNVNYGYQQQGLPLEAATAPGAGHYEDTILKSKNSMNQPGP
T2 sequence (P23458 849-1154): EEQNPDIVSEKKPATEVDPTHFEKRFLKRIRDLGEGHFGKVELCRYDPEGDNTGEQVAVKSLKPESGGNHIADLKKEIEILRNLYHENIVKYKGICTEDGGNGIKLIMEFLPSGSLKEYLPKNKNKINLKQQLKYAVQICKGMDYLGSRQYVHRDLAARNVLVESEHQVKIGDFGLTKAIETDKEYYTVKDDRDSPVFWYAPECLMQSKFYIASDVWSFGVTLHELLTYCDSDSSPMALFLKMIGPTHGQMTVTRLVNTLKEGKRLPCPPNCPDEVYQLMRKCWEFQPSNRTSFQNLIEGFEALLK
T3 sequence (P52333 781-1124): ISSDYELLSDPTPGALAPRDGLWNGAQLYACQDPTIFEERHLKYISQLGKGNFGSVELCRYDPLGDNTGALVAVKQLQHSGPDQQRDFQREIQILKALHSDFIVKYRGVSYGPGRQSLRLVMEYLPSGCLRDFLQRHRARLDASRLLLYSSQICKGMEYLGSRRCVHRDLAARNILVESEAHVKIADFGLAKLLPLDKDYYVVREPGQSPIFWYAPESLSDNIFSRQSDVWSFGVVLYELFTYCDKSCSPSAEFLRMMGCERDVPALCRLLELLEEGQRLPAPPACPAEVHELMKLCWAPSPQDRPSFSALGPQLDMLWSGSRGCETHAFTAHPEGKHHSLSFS

IC50 [1, 5] | IC50 (TYK2) | IC50 [2, 6] | IC50 [3, 7] | ALK % of inhibition at a concentration of 500 nM or 1 mM [4, 8] | IC50 ([1]; Table B1) | IC50 (TYK2; Table B1) | IC50 ([2]; Table B1) | IC50 ([3]; Table B1) | Compound | other results
0.021 µM | 0.05 µM | 0.014 µM | 0.104 µM | 5% | – | – | – | – | O=C(COc1ccc2cc1CCc1cccc(c1)Nc1ncc(Cl)c(n1)N2)N1CCN(C(=O)Nc2ccc(Cl)nc2)CC1 [Example A10, 4-(6-Chloropyridin-3-yl)-4-({[6-chloro-2,4,8,22-tetraazatetracyclo[14.3.1.1(3,7).1(9,13)]docosa-1(20),3(22),4,6,9(21),10,12,16,18-nonaen-12-yl]oxy}acetyl)piperazine-1-carboxamide bis(trifluoroacetate)] | –
– | – | – | – | – | 0.001 µM | 0.007 µM | 0.0021 µM | 0.014 µM | NS(=O)(=O)N1CCC(NC(=O)Nc2ccc3cc2CCc2cccc(c2)Nc2ncc(Cl)c(n2)N3)CC1 [Example B183, 4-[({[6-Chloro-2,4,8,22-tetraazatetracyclo[14.3.1.1(3,7).1(9,13)]docosa-1(20),3(22),4,6,9(21),10,12,16,18-nonaen-12-yl]amino}carbonyl)amino]piperidine-1-sulfonamide trifluoroacetate] | ALK % of inhibition at a concentration of 500 nM or 1 mM [4, 9]: 26%
– | – | – | – | – | – | – | – | – | [O-][S+]1CCOc2cccc(c2)Nc2ncc(Cl)c(n2)Nc2cccc1c2 (stereo not shown) [Example D13, 6-Chloro-17-oxa-14-thia-2,4,8,24-tetraazatetracyclo[16.3.1.1(3,7).1(9,13)]tetracosa-1(22),3(24),4,6,9(23),10,12,18,20-nonaene 14-oxide trifluoroacetate] | IC50 ([1]; Table D1): 0.0021 µM; IC50 (TYK2; Table D1): 0.012 µM; IC50 ([2]; Table D1): 0.0036 µM; IC50 ([3]; Table D1): 0.024 µM; IC50 ([4]; Table D1, 90 μM ATP): 1.74 µM
– | – | – | – | – | 0.0062 µM | 0.017 µM | 0.0012 µM | 0.044 µM | CS(=O)(=O)N1CCC(NC(=O)Nc2ccc3cc2CCc2cccc(c2)Nc2ncc(Cl)c(n2)N3)CC1 [Example B182, N-[6-Chloro-2,4,8,22-tetraazatetracyclo[14.3.1.1(3,7).1(9,13)]docosa-1(20),3(22),4,6,9(21),10,12,16,18-nonaen-12-yl]-N′-[1-(methylsulfonyl)piperidin-4-yl]urea trifluoroacetate] | ALK % of inhibition at a concentration of 500 nM or 1 mM [4, 9]: 29%
– | – | – | – | – | 0.0015 µM | 0.0035 µM | 0.0011 µM | 0.01 µM | O=C(NCCO)Nc1ccc2cc1CCc1cccc(c1)Nc1ncc(Cl)c(n1)N2 [Example B241, N-[6-Chloro-2,4,8,22-tetraazatetracyclo[14.3.1.1(3,7).1(9,13)]docosa-1(20),3(22),4,6,9(21),10,12,16,18-nonaen-12-yl]-N′-(2-hydroxyethyl)urea trifluoroacetate] | ALK % of inhibition at a concentration of 500 nM or 1 mM [4, 9]: 22%
– | – | – | – | – | – | – | – | – | Clc1cnc2nc1Nc1cccc(c1)OCc1cccc(c1)N2 [Example D7, 6-Chloro-14-oxa-2,4,8,22-tetraazatetracyclo[14.3.1.1(3,7).1(9,13)]docosa-1(20),3(22),4,6,9(21),10,12,16,18-nonaene trifluoroacetate] | IC50 ([1]; Table D1): 0.061 µM; IC50 (TYK2; Table D1): > 0.1 µM; IC50 ([2]; Table D1): 0.1 µM; IC50 ([3]; Table D1): > 0.1 µM; IC50 ([4]; Table D1, 90 μM ATP): > 10 µM
– | – | – | – | – | – | – | – | – | O=C(Nc1cc2cc(c1)OCCSc1cccc(c1)Nc1nc(ncc1Cl)N2)c1ccncc1 [Example D60, N-[6-Chloro-17-oxa-14-thia-2,4,8,24-tetraazatetracyclo[16.3.1.1(3,7).1(9,13)]tetracosa-1(22),3(24),4,6,9(23),10,12,18,20-nonaen-20-yl]isonicotinamide bis(trifluoroacetate)] | IC50 ([1]; Table D1): 0.0006 µM; IC50 (TYK2; Table D1): 0.0013 µM; IC50 ([2]; Table D1): 0.002 µM; IC50 ([3]; Table D1): 0.005 µM; IC50 ([4]; Table D1, 90 μM ATP): 0.13 µM
0.09 µM | > 0.2 µM | 0.035 µM | > 0.2 µM | 20% | – | – | – | – | Cc1oncc1S(=O)(=O)N1CCC(CC(=O)Nc2ccc3cc2CCc2cccc(c2)Nc2ncc(Cl)c(n2)N3)CC1 [Example A210, N-[6-Chloro-2,4,8,22-tetraazatetracyclo[14.3.1.1(3,7).1(9,13)]docosa-1(20),3(22),4,6,9(21),10,12,16,18-nonaen-12-yl]-2-{1-[(5-methylisoxazol-4-yl)sulfonyl]piperidin-4-yl}acetamide trifluoroacetate] | –
– | – | – | – | – | 0.8 µM | > 1 µM | > 1 µM | > 1 µM | O=C(O)c1cc2cc(c1)Nc1nc(ncc1Cl)Nc1cccc(c1)CC2 [Example B6, 6-Chloro-2,4,8,22-tetraazatetracyclo[14.3.1.1(3,7).1(9,13)]docosa-1(20),3(22),4,6,9(21),10,12,16,18-nonaene-11-carboxylic acid trifluoroacetate] | IC50 [4, 10]: > 1 µM
– | – | – | – | – | 0.017 µM | 0.085 µM | 0.082 µM | 0.118 µM | O=C(Nc1ccccc1)c1ccc2cc1CCc1cccc(c1)Nc1ncc(Cl)c(n1)N2 [Example B200, 6-Chloro-N-phenyl-2,4,8,22-tetraazatetracyclo[14.3.1.1(3,7).1(9,13)]docosa-1(20),3(22),4,6,9(21),10,12,16,18-nonaene-12-carboxamide trifluoroacetate] | IC50 [4, 10]: 4.4 µM
– | – | – | – | – | – | – | – | – | Clc1cnc2nc1Nc1cccc(c1)COc1cccc(c1)N2 [Example D6, 6-Chloro-15-oxa-2,4,8,22-tetraazatetracyclo[14.3.1.1(3,7).1(9,13)]docosa-1(20),3(22),4,6,9(21),10,12,16,18-nonaene trifluoroacetate] | IC50 ([1]; Table D1): 0.037 µM; IC50 (TYK2; Table D1): 0.016 µM; IC50 ([2]; Table D1): 0.036 µM; IC50 ([3]; Table D1): > 0.1 µM; IC50 ([4]; Table D1, 90 μM ATP): 4.19 µM
0.095 µM | > 0.2 µM | 0.014 µM | > 0.2 µM | 34% | – | – | – | – | N#Cc1cccnc1N1CCC(CC(=O)Nc2ccc3cc2CCc2cncc(c2)Nc2ncc(Cl)c(n2)N3)CC1 [Example A177, N-[6-Chloro-2,4,8,18,22-pentaazatetracyclo[14.3.1.1(3,7).1(9,13)]docosa-1(20),3(22),4,6,9(21),10,12,16,18-nonaen-12-yl]-2-[1-(3-cyanopyridin-2-yl)piperidin-4-yl]acetamide tris(trifluoroacetate)] | –
– | – | – | – | – | 0.0032 µM | 0.0058 µM | 0.003 µM | 0.0065 µM | O=C(NCCNS(=O)(=O)c1ccccc1)Nc1ccc2cc1CCc1cccc(c1)Nc1ncc(Cl)c(n1)N2 [Example B329, N-{2-[({[6-Chloro-2,4,8,22-tetraazatetracyclo[14.3.1.1(3,7).1(9,13)]docosa-1(20),3(22),4,6,9(21),10,12,16,18-nonaen-12-yl]amino}carbonyl)amino]ethyl}benzenesulfonamide trifluoroacetate] | ALK % of inhibition at a concentration of 500 nM or 1 mM ([4]; percentage inhibition of the example compound at a concentration of 500 nM or 1 mM (not specified which)): 20%
0.0024 µM | 0.0021 µM | 0.0004 µM | 0.057 µM | 38% | – | – | – | – | O=C(CC1CCN(C(=O)c2nc[nH]n2)CC1)Nc1ccc2cc1CCc1cncc(c1)Nc1ncc(Cl)c(n1)N2 [Example A136, N-[6-Chloro-2,4,8,18,22-pentaazatetracyclo[14.3.1.1(3,7).1(9,13)]docosa-1(20),3(22),4,6,9(21),10,12,16,18-nonaen-12-yl]-2-[1-(1H-1,2,4-triazol-3-ylcarbonyl)piperidin-4-yl]acetamide bis(trifluoroacetate)] | –
0.1 µM | > 0.4 µM | 0.0053 µM | > 0.4 µM | 55% | – | – | – | – | O=C(CC1CCN(S(=O)(=O)c2ccccc2F)CC1)Nc1ccc2cc1CCc1cncc(c1)Nc1ncc(Cl)c(n1)N2 [Example A226, N-[6-Chloro-2,4,8,18,22-pentaazatetracyclo[14.3.1.1(3,7).1(9,13)]docosa-1(20),3(22),4,6,9(21),10,12,16,18-nonaen-12-yl]-2-{1-[(2-fluorophenyl)sulfonyl]piperidin-4-yl}acetamide bis(trifluoroacetate)] | –
– | – | – | – | – | 0.00046 µM | 0.0016 µM | 0.0013 µM | 0.0031 µM | O=C(O)c1cccc(S(=O)(=O)Nc2ccc3cc2CCc2cccc(c2)Nc2ncc(Cl)c(n2)N3)c1 [Example B159, 3-({[6-Chloro-2,4,8,22-tetraazatetracyclo[14.3.1.1(3,7).1(9,13)]docosa-1(20),3(22),4,6,9(21),10,12,16,18-nonaen-12-yl]amino}sulfonyl)benzoic acid trifluoroacetate] | ALK % of inhibition at a concentration of 500 nM or 1 mM [4, 9]: 82%
0.0003 µM | 0.0003 µM | 0.0004 µM | 0.012 µM | 39% | – | – | – | – | NS(=O)(=O)N1CCC(CC(=O)Nc2ccc3cc2CCc2cncc(c2)Nc2ncc(Cl)c(n2)N3)CC1 [Example A78, 2-[1-(Aminosulfonyl)piperidin-4-yl]-N-[6-chloro-2,4,8,18,22pentaazatetracyclo[14.3.1.1(3,7).1(9,13)]docosa-1(20),3(22),4,6,9(21),10,12,16,18-nonaen-12-yl]acetamide bis(trifluoroacetate)] | –
